Data reported in patent US20240058464A1 (Fortis Therapeutics, Inc., priority 2021, published 2024).

Key:
[1] = test system: CD46 expression; assay: CD46 expression by RNA-sequencing in unpaired pre-treatment and post-treatment tumor biopsies; type: in vivo, human; conditions: for CD46 expression Post: post-treatment biopsies
[2] = test system: CD46 expression; assay: CD46 expression by RNA-sequencing in paired tumor biopsies before and after therapy; conditions: paired biopsies; for CD46 expression, Post-Treatment Biopsy / CD46 expression, Pre-Treatment Biopsy: RNA-seq log2-transformed counts;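 for all read-outs here: FFPE human tumor biopsies, exome-capture RNA-seq, reads aligned to GRCh37, counts normalized for GC content, length and depth, summed per gene, log2-transformed, samples paired before versus after therapy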
[3] = Biliary Cancer, Post minus Pre, unpaired biopsies, log2-transformed counts
[4] = Biliary Cancer, post- vs pre-treatment unpaired biopsies
[5] = Biliary Cancer, unpaired, RNA-seq log2-transformed normalized counts
[6] = Breast Cancer, Post minus Pre, unpaired biopsies, log2-transformed counts
[7] = Breast Cancer, post- vs pre-treatment unpaired biopsies
[8] = Breast Cancer, unpaired, RNA-seq log2-transformed normalized counts
[9] = Ovarian Cancer, Post minus Pre, unpaired biopsies, log2-transformed counts
[10] = Ovarian Cancer, post- vs pre-treatment unpaired biopsies
[11] = Ovarian Cancer, unpaired, RNA-seq log2-transformed normalized counts
[12] = Pancreatic Cancer, Post minus Pre, unpaired biopsies, log2-transformed counts
[13] = Pancreatic Cancer, post- vs pre-treatment unpaired biopsies
[14] = Sarcoma, Post minus Pre, unpaired biopsies, log2-transformed counts
[15] = Sarcoma, post- vs pre-treatment unpaired biopsies
[16] = Sarcoma, unpaired, RNA-seq log2-transformed normalized counts
[17] = Colorectal Cancer, Post minus Pre, unpaired biopsies, log2-transformed counts
[18] = Colorectal Cancer, post- vs pre-treatment unpaired biopsies
[19] = Colorectal Cancer, unpaired, RNA-seq log2-transformed normalized counts
[20] = Pancreatic Cancer, post minus pre, unpaired biopsies
[21] = Pancreatic Cancer, post vs pre, unpaired biopsies
[22] = Pancreatic Cancer, log2-transformed RNA-seq counts
[23] = Esophageal Cancer, Post minus Pre, unpaired biopsies, log2-transformed counts
[24] = Esophageal Cancer, post- vs pre-treatment unpaired biopsies
[25] = Esophageal Cancer, unpaired, RNA-seq log2-transformed normalized counts
[26] = Gastric Cancer, Post minus Pre, unpaired biopsies, log2-transformed counts
[27] = Gastric Cancer, post- vs pre-treatment unpaired biopsies
[28] = Gastric Cancer, unpaired, RNA-seq log2-transformed normalized counts

Compound: Nc1ccn([C@@H]2O[C@H](CO)[C@@H](O)C2(F)F)c(=O)n1 [gemcitabine]
- CD46 expression diff [1, 3]: −0.03
- CD46 expression Percentage change [1, 4]: −0.5%
- CD46 expression Post [1, 5]: 5.80
- CD46 expression diff ([1]; Bladder Cancer, Post minus Pre, unpaired biopsies, log2-transformed counts): −0.03
- CD46 expression Percentage change ([1]; Bladder Cancer, post- vs pre-treatment unpaired biopsies): −0.5%
- CD46 expression Post ([1]; Bladder Cancer, unpaired, RNA-seq log2-transformed normalized counts): 6.12
- CD46 expression diff [1, 6]: 0.02
- CD46 expression Percentage change [1, 7]: 0.3%
- CD46 expression Post [1, 8]: 6.09
- CD46 expression diff ([1]; Non-Small Cell Lung Cancer, Post minus Pre, unpaired biopsies, log2-transformed counts): 0.10
- CD46 expression Percentage change ([1]; Non-Small Cell Lung Cancer, post- vs pre-treatment unpaired biopsies): 1.7%
- CD46 expression Post ([1]; Non-Small Cell Lung Cancer, unpaired, RNA-seq log2-transformed normalized counts): 5.98
- CD46 expression diff [1, 9]: −0.05
- CD46 expression Percentage change [1, 10]: −0.9%
- CD46 expression Post [1, 11]: 5.72
- CD46 expression diff [1, 12]: 0.00
- CD46 expression Percentage change [1, 13]: 0.1%
- CD46 expression Post ([1]; Pancreatic Cancer, unpaired, RNA-seq log2-transformed normalized counts): 5.87
- CD46 expression diff [1, 14]: −0.10
- CD46 expression Percentage change [1, 15]: −2.0%
- CD46 expression Post [1, 16]: 5.02
- CD46 expression diff (post minus pre) ([2]; Biliary Cancer): 0.05
- Percent Change in CD46 expression ([2]; Biliary Cancer): 0.9%
- CD46 expression, Post-Treatment Biopsy ([2]; Biliary Cancer): 5.86
- CD46 expression diff (post minus pre) ([2]; Bladder Cancer): −0.05
- Percent Change in CD46 expression ([2]; Bladder Cancer): −0.8%
- CD46 expression, Post-Treatment Biopsy ([2]; Bladder Cancer): 6.24
- CD46 expression diff (post minus pre) ([2]; Breast Cancer): 0.09
- Percent Change in CD46 expression ([2]; Breast Cancer): 1.4%
- CD46 expression, Post-Treatment Biopsy ([2]; Breast Cancer): 6.22
- CD46 expression diff (post minus pre) ([2]; Ovarian Cancer): 0.30
- Percent Change in CD46 expression ([2]; Ovarian Cancer): 5.3%
- CD46 expression, Post-Treatment Biopsy ([2]; Ovarian Cancer): 5.95
- CD46 expression diff (post minus pre) ([2]; Pancreatic Cancer): 0.09
- Percent Change in CD46 expression ([2]; Pancreatic Cancer): 1.5%
- CD46 expression, Post-Treatment Biopsy ([2]; Pancreatic Cancer): 5.93
- CD46 expression diff (post minus pre) ([2]; Sarcoma): 0.02
- Percent Change in CD46 expression ([2]; Sarcoma): 0.4%
- CD46 expression, Post-Treatment Biopsy ([2]; Sarcoma): 5.13

Compound: O=P1(NCCCl)OCCCN1CCCl (centres unmarked) [ifosfamide]
- CD46 expression diff [1, 14]: 0.17
- CD46 expression Percentage change [1, 15]: 3.4%
- CD46 expression Post [1, 16]: 5.07
- CD46 expression diff (post minus pre) ([2]; Sarcoma): 0.32
- Percent Change in CD46 expression ([2]; Sarcoma): 6.7%
- CD46 expression, Post-Treatment Biopsy ([2]; Sarcoma): 5.08

Compound: CCc1c2c(nc3ccc(OC(=O)N4CCC(N5CCCCC5)CC4)cc13)-c1cc3c(c(=O)n1C2)COC(=O)[C@]3(O)CC [irinotecan]
- CD46 expression diff ([1]; Biliary Cancer, post minus pre, unpaired biopsies): −0.14
- CD46 expression Percentage change ([1]; Biliary Cancer, post vs pre, unpaired biopsies): −2.3%
- CD46 expression Post ([1]; Biliary Cancer, log2-transformed RNA-seq counts): 5.88
- CD46 expression diff [1, 17]: 0.16
- CD46 expression Percentage change [1, 18]: 2.5%
- CD46 expression Post [1, 19]: 6.54
- CD46 expression diff [1, 20]: −0.14
- CD46 expression Percentage change [1, 21]: −2.5%
- CD46 expression Post [1, 22]: 5.76
- CD46 expression after treatment vs pre-treatment ([1]; colorectal cancer, unpaired biopsies, FIG. 5): significantly higher
- CD46 expression diff (post minus pre) ([2]; Colorectal Cancer): 0.16
- Percent Change in CD46 expression ([2]; Colorectal Cancer): 2.5%
- CD46 expression, Post-Treatment Biopsy ([2]; Colorectal Cancer): 6.48
- CD46 expression diff (post minus pre) ([2]; Pancreatic Cancer): −0.01
- Percent Change in CD46 expression ([2]; Pancreatic Cancer): −0.1%
- CD46 expression, Post-Treatment Biopsy ([2]; Pancreatic Cancer): 5.93

Compound: N#Cc1ccc(C(c2ccc(C#N)cc2)n2cncn2)cc1 [letrozole]
- CD46 expression diff [1, 6]: −0.04
- CD46 expression Percentage change [1, 7]: −0.6%
- CD46 expression Post [1, 8]: 6.39
- CD46 expression diff ([1]; Ovarian Cancer, post minus pre, unpaired biopsies): −0.17
- CD46 expression Percentage change ([1]; Ovarian Cancer, post vs pre, unpaired biopsies): −2.8%
- CD46 expression Post ([1]; Ovarian Cancer, log2-transformed RNA-seq counts): 5.74
- CD46 expression diff (post minus pre) ([2]; Breast Cancer): −0.04
- Percent Change in CD46 expression ([2]; Breast Cancer): −0.6%
- CD46 expression, Post-Treatment Biopsy ([2]; Breast Cancer): 6.41

Compound: Nc1nc2c(c(=O)[nH]1)N(C=O)C(CNc1ccc(C(=O)N[C@@H](CCC(=O)O)C(=O)O)cc1)CN2 (some centres unmarked) [leucovorin]
- CD46 expression diff [1, 3]: 0.00
- CD46 expression Percentage change [1, 4]: 0.1%
- CD46 expression Post [1, 5]: 5.92
- CD46 expression diff [1, 17]: 0.08
- CD46 expression Percentage change [1, 18]: 1.2%
- CD46 expression Post [1, 19]: 6.46
- CD46 expression diff [1, 23]: −0.05
- CD46 expression Percentage change [1, 24]: −0.9%
- CD46 expression Post [1, 25]: 5.84
- CD46 expression diff [1, 26]: −0.11
- CD46 expression Percentage change [1, 27]: −1.8%
- CD46 expression Post [1, 28]: 5.68
- CD46 expression diff [1, 20]: −0.15
- CD46 expression Percentage change [1, 21]: −2.5%
- CD46 expression Post [1, 22]: 5.76
- CD46 expression diff (post minus pre) ([2]; Colorectal Cancer): −0.07
- Percent Change in CD46 expression ([2]; Colorectal Cancer): −1.0%
- CD46 expression, Post-Treatment Biopsy ([2]; Colorectal Cancer): 6.30
- CD46 expression diff (post minus pre) ([2]; Esophageal Cancer): −0.14
- Percent Change in CD46 expression ([2]; Esophageal Cancer): −2.3%
- CD46 expression, Post-Treatment Biopsy ([2]; Esophageal Cancer): 5.74
- CD46 expression diff (post minus pre) ([2]; Pancreatic Cancer): 0.09
- Percent Change in CD46 expression ([2]; Pancreatic Cancer): 1.5%
- CD46 expression, Post-Treatment Biopsy ([2]; Pancreatic Cancer): 5.92

Compound: CCNC(=O)[C@@H]1CCCN1C(=O)[C@H](CCCNC(=N)N)NC(=O)[C@H](CC(C)C)NC(=O)[C@@H](CC(C)C)NC(=O)[C@H](Cc1ccc(O)cc1)NC(=O)[C@H](CO)NC(=O)[C@H](Cc1c[nH]c2ccccc12)NC(=O)[C@H](Cc1c[nH]cn1)NC(=O)[C@@H]1CCC(=O)N1 [leuprolide]
- CD46 expression diff ([1]; Breast Cancer, post minus pre, unpaired biopsies): −0.15
- CD46 expression Percentage change ([1]; Breast Cancer, post vs pre, unpaired biopsies): −2.3%
- CD46 expression Post ([1]; Breast Cancer, log2-transformed RNA-seq counts): 6.18
- CD46 expression Pre ([1]; Breast Cancer, pre-treatment biopsies, log2-transformed RNA-seq counts): 6.33
- CD46 expression diff ([1]; Prostate Cancer, Post minus Pre, unpaired biopsies, log2-transformed counts): −0.10
- CD46 expression Percentage change ([1]; Prostate Cancer, post- vs pre-treatment unpaired biopsies): −1.6%
- CD46 expression Post ([1]; Prostate Cancer, unpaired, RNA-seq log2-transformed normalized counts): 6.08
- CD46 expression diff (post minus pre) ([2]; Prostate Cancer): −0.19
- Percent Change in CD46 expression ([2]; Prostate Cancer): −3.1%
- CD46 expression, Post-Treatment Biopsy ([2]; Prostate Cancer): 5.92
- CD46 expression, Pre-Treatment Biopsy ([2]; Prostate Cancer): 6.11

Compound: O=C(c1cc(Cc2n[nH]c(=O)c3ccccc23)ccc1F)N1CCN(C(=O)C2CC2)CC1 [olaparib]
- CD46 expression diff [1, 6]: 0.04
- CD46 expression Percentage change [1, 7]: 0.6%
- CD46 expression Post [1, 8]: 6.15
- CD46 expression diff [1, 9]: −0.02
- CD46 expression Percentage change [1, 10]: −0.3%
- CD46 expression Post [1, 11]: 5.70
- CD46 expression diff (post minus pre) ([2]; Ovarian Cancer): −0.14
- Percent Change in CD46 expression ([2]; Ovarian Cancer): −2.5%
- CD46 expression, Post-Treatment Biopsy ([2]; Ovarian Cancer): 5.51

Compound: C=CC(=O)Nc1cc(Nc2nccc(-c3cn(C)c4ccccc34)n2)c(OC)cc1N(C)CCN(C)C [osimertinib]
- CD46 expression diff ([1]; Non-Small Cell Lung Cancer, post minus pre, unpaired biopsies): −0.29
- CD46 expression Percentage change ([1]; Non-Small Cell Lung Cancer, post vs pre, unpaired biopsies): −4.4%
- CD46 expression Post ([1]; Non-Small Cell Lung Cancer, log2-transformed RNA-seq counts): 6.23
- CD46 expression diff (post minus pre) ([2]; Non-Small Cell Lung Cancer): −0.26
- Percent Change in CD46 expression ([2]; Non-Small Cell Lung Cancer): −4.0%

Compound: O=C1[O][Pt]2([NH][C@@H]3CCCC[C@H]3[NH]2)[O]C1=O [oxaliplatin]
- CD46 expression diff [1, 3]: 0.05
- CD46 expression Percentage change [1, 4]: 0.9%
- CD46 expression Post [1, 5]: 5.91
- CD46 expression diff [1, 17]: 0.04
- CD46 expression Percentage change [1, 18]: 0.6%
- CD46 expression Post [1, 19]: 6.42
- CD46 expression diff [1, 23]: −0.06
- CD46 expression Percentage change [1, 24]: −1.0%
- CD46 expression Post [1, 25]: 5.85
- CD46 expression diff [1, 26]: −0.12
- CD46 expression Percentage change [1, 27]: −2.1%
- CD46 expression Post [1, 28]: 5.66
- CD46 expression diff [1, 12]: −0.13
- CD46 expression Percentage change [1, 13]: −2.2%
- CD46 expression diff (post minus pre) ([2]; Colorectal Cancer): −0.04
- Percent Change in CD46 expression ([2]; Colorectal Cancer): −0.6%
- CD46 expression, Post-Treatment Biopsy ([2]; Colorectal Cancer): 6.26
- CD46 expression, Pre-Treatment Biopsy ([2]; Colorectal Cancer): 6.30
- CD46 expression diff (post minus pre) ([2]; Esophageal Cancer): −0.17
- Percent Change in CD46 expression ([2]; Esophageal Cancer): −2.9%
- CD46 expression, Post-Treatment Biopsy ([2]; Esophageal Cancer): 5.74
- CD46 expression, Pre-Treatment Biopsy ([2]; Esophageal Cancer): 5.91
- CD46 expression diff (post minus pre) ([2]; Gastric Cancer): 0.05
- Percent Change in CD46 expression ([2]; Gastric Cancer): 0.8%
- CD46 expression, Post-Treatment Biopsy ([2]; Gastric Cancer): 5.69
- CD46 expression, Pre-Treatment Biopsy ([2]; Gastric Cancer): 5.64
- CD46 expression diff (post minus pre) ([2]; Pancreatic Cancer): 0.06
- Percent Change in CD46 expression ([2]; Pancreatic Cancer): 1.0%
- CD46 expression, Post-Treatment Biopsy ([2]; Pancreatic Cancer): 5.93
- CD46 expression, Pre-Treatment Biopsy ([2]; Pancreatic Cancer): 5.87
